Laboratory results published in patent US10844351B2, “Method for producing otic progenitors” (priority 2015, dated 2020).

Assays:
Assay type in all cases: cell-based, human
[1] = test system: H14S9 hES cell line; assay: Cell death in differentiating cultures; details: 20 μM IWR-1-endo in FGF medium
Description: The effect of the Wnt inhibitors was initially explored in the backdrop of a known differentiation protocol, which includes FGF 3 and FGF 10 supplementation from the outset. Experiments were carried out to determine the effect of canonical Wnt inhibition on the differentiation of otic progenitors in FGF medium (standard concentration of 50 ng/ml for each FGF 3 and FGF 10) and obtain an optimal working concentration. IWR-1-endo was present from day 0 of differentiation (day 0 refers to the initial seeding of the hES cells into differentiation conditions) and were maintained throughout the 12 day protocol. At the end of the differentiation protocol, RNA was extracted and PAX2, PAX8 and FOXG1 gene expression was quantified by real time PCR (QPCR) using SYBR Green (Sigma Aldrich). Delta Cts were calculated against the large ribosomal protein RPLPO housekeeping gene, and Delta Ct values were compared against the levels expressed by cells differentiated in the control DFNB medium (Livak and Schmittgen, 2001). FIG. 1 compares the dose responses of IWR-1-endo and the effect on the gene expression of PAX2, PAX8 and FOXG1 in the H14S9 hES cell line. Dimethyl sulfoxide (DMSO) was the vehicle for all small molecule compounds. A vehicle-only control was added to FGF medium to ascertain the effects of DMSO. […]

[2] = test system: H14S9 hES cell line; assay: QPCR of otic marker gene expression after 12 day otic differentiation protocol
Description: The effect of the Wnt inhibitors was initially explored in the backdrop of a known differentiation protocol, which includes FGF 3 and FGF 10 supplementation from the outset. Experiments were carried out to determine the effect of canonical Wnt inhibition on the differentiation of otic progenitors in FGF medium (standard concentration of 50 ng/ml for each FGF 3 and FGF 10) and obtain an optimal working concentration. IWR-1-endo was present from day 0 of differentiation (day 0 refers to the initial seeding of the hES cells into differentiation conditions) and were maintained throughout the 12 day protocol. At the end of the differentiation protocol, RNA was extracted and PAX2, PAX8 and FOXG1 gene expression was quantified by real time PCR (QPCR) using SYBR Green (Sigma Aldrich). Delta Cts were calculated against the large ribosomal protein RPLPO housekeeping gene, and Delta Ct values were compared against the levels expressed by cells differentiated in the control DFNB medium (Livak and Schmittgen, 2001). FIG. 1 compares the dose responses of IWR-1-endo and the effect on the gene expression of PAX2, PAX8 and FOXG1 in the H14S9 hES cell line. Dimethyl sulfoxide (DMSO) was the vehicle for all small molecule compounds. A vehicle-only control was added to FGF medium to ascertain the effects of DMSO. […] This provided confidence that the Wnt inhibitor compound was exerting an effect on gene expression, and not the carrier vehicle. […] The optimal concentration of IWR-1-endo agrees with published findings in human stem cell studies (Chen et al., 2009, Hudson et al., 2012).
Further investigating the timing of canonical Wnt inhibition it was important to address whether inhibition was required throughout the whole 12-day differentiation protocol. Experiments were set up to inhibit canonical Wnt signalling for different lengths of time. In combination with FGF medium, Wnt inhibition took place from day 0 to day 4, day 0 to day 6, or day 0 to day 8. […] At the end of day 12, gene expression of PAX2, PAX8 and FOXG1 was quantified relative to the DFNB baseline condition, and is shown in FIG. 6. […]

[3] = test system: H14S9 hES cell line; assay: QPCR of ectoderm, mesoderm and endoderm lineage marker gene expression after 12 day otic differentiation
Description: With the H14S9 hES cell line, 12 day otic differentiation experiments were carried out in control DFNB, FGF, or FGF with 10 μM IWR-1-endo supplemented medium. Gene expression of the three germ layer lineages relative to the baseline DFNB condition were quantified by QPCR. Two gene markers for each germ layer were investigated; PAX6 and NEST/N (ectoderm), BRACHYURY and MEOX1 (mesoderm), and AFP and GATA6 (endoderm) (FIG. 2).
Following a lost-of function/gain-of function paradigm, an experiment was done to determine the effect of activating canonical Wnt signalling throughout the 12 days of otic differentiation. The small molecule compound BIO (6-bromoindirubin-3′-oxime, Tocris) is a potent inhibitor of GSK-3β kinase, a component of the β-catenin degradation complex. Inhibition of GSK-3β kinase activity disrupts the proteolytic breakdown of β-catenin and so Wnt activity is sustained (Meijer et al., 2003). BIO is well established in the literature and has been used to investigate survival and proliferation of hES cells and also lineage differentiation studies (Dravid et al., 2005) (Tseng et al., 2006). BIO was tested at a concentration of 2 μM (as recommended in the literature). […] In contrast to inhibiting canonical Wnt signalling throughout the 12 day protocol, activating canonical Wnt signalling throughout appears to downregulate gene expression of the otic and ectoderm markers, with upregulation of markers of mesoderm and endoderm.

[4] = FGF medium with 10 μM IWR-1-endo, 12 days, compared to FGF condition
[5] = 2 μM BIO in FGF medium throughout 12 days, one experiment

O=C(Nc1cccc2cccnc12)c1ccc(N2C(=O)[C@@H]3[C@H](C2=O)[C@@H]2C=C[C@H]3C2)cc1 [IWR-1-endo]
cell death in the cultures [1]: very high levels of cell death
gene expression of PAX2, PAX8 and FOXG1 ([2]; 10 μM IWR-1-endo in FGF medium (50 ng/ml FGF 3 and FGF 10), day 0 to day 12, relative to DFNB): more robust and reproducible upregulation
gene expression of PAX2, PAX8 or FOXG1 ([2]; IWR-1-endo day 0 to day 4 or day 0 to day 6, then FGF medium only until day 12, compared to FGF medium alone): did not significantly alter
gene expression of the otic markers ([2]; canonical Wnt inhibition with IWR-1-endo day 0 to 8 or day 0 to 12, compared to standard FGF medium): Significant upregulation
ectodermal differentiation (PAX6, NESTIN gene expression) [3, 4]: enhanced further over the FGF condition
gene expression of mesoderm and endoderm markers [3, 4]: significantly reduced compared to the FGF condition
AFP gene expression ([3]; FGF medium with IWR-1-endo, 12 days, compared to FGF condition): significant downregulation

O=C1Nc2cc(Br)ccc2/C1=C1/Nc2ccccc2/C1=N\O [BIO, 6-bromoindirubin-3′-oxime]
gene expression of markers of mesoderm and endoderm [3, 5]: upregulation
gene expression of the otic and ectoderm markers [3, 5]: downregulate
